PubChem BioAssay AID248 (DTP/NCI, 2004)
Values joined by “and” are separate entries in the source; they are usually repeats but may differ in a detail not shown here. Equal entries are not always repeated. Toxic doses and inconclusive results are not listed. Cut-off read from the data, not from the text of the source: active = T/C of 150% or more; inactive = T/C below 125%.

System: L1210 leukemia ip in BDF1 mice, survival T/C
Test: NCI In Vivo Anticancer Drug Screen. Data for tumor model L1210 Leukemia (intraperitoneal) in B6D2F1 (BDF1) mice
Conditions: endpoint: mean survival time, higher = longer survival
How it was run: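 Transplantable tumor model; survival measured in treated vs vehicle control mice. Value = treated/control.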

Measured: T/C

CCCCCCCCC(=O)Nc1ccc(O)cc1
inactive: dose: 100.0 mg/kg/injection, schedule: Q01DX009 (ip), vehicle: gum acacia 97 % of control | dose: 100.0 mg/kg/injection, schedule: Q04DX003 (ip), vehicle: gum acacia 104 % of control | dose: 200.0 mg/kg/injection, schedule: Q01DX009 (ip), vehicle: gum acacia 105 % of control | dose: 200.0 mg/kg/injection, schedule: Q04DX003 (ip), vehicle: gum acacia 88 % of control | dose: 400.0 mg/kg/injection, schedule: Q01DX009 (ip), vehicle: gum acacia 112 % of control | dose: 400.0 mg/kg/injection, schedule: Q04DX003 (ip), vehicle: gum acacia 102 % of control

O=C1C[C@@H](c2ccc(O)cc2)[C@@]2(O1)C(=O)O[C@H]([C@@H](O)CO)[C@@H]2O
inactive: dose: 75.0 mg/kg/injection, schedule: Q01DX001 (ip), vehicle: saline 98 % of control | dose: 75.0 mg/kg/injection, schedule: Q01DX009 (ip), vehicle: saline 96 % of control | dose: 75.0 mg/kg/injection, schedule: Q04DX003 (ip), vehicle: saline 95 % of control | dose: 150.0 mg/kg/injection, schedule: Q01DX001 (ip), vehicle: saline 96 % of control | dose: 150.0 mg/kg/injection, schedule: Q01DX009 (ip), vehicle: saline 93 % of control | dose: 150.0 mg/kg/injection, schedule: Q04DX003 (ip), vehicle: saline 98 % of control | dose: 300.0 mg/kg/injection, schedule: Q01DX001 (ip), vehicle: saline 97 % of control | dose: 300.0 mg/kg/injection, schedule: Q01DX009 (ip), vehicle: saline 100 % of control | dose: 300.0 mg/kg/injection, schedule: Q04DX003 (ip), vehicle: saline 94 % of control

Cc1cc(=O)[nH]c(NCC(=O)O)n1
inactive: dose: 50.0 mg/kg/injection, schedule: Q04DX002 (ip), vehicle: saline 101 % of control | dose: 100.0 mg/kg/injection, schedule: Q04DX002 (ip), vehicle: saline 101 % of control | dose: 200.0 mg/kg/injection, schedule: Q04DX002 (ip), vehicle: saline 101 % of control

N=C(N)SCc1c2ccccc2cc2ccccc12
inactive: dose: 88.0 mg/kg/injection, schedule: Q01DX009 (ip), vehicle: saline sonified 102 % of control | dose: 100.0 mg/kg/injection, schedule: Q01DX009 (ip), vehicle: saline 102 % of control | dose: 100.0 mg/kg/injection, schedule: Q04DX003 (ip), vehicle: saline 104 % of control | dose: 132.0 mg/kg/injection, schedule: Q01DX009 (ip), vehicle: saline sonified 105 % of control | dose: 200.0 mg/kg/injection, schedule: Q01DX009 (ip), vehicle: saline sonified 114 % of control | dose: 200.0 mg/kg/injection, schedule: Q04DX003 (ip), vehicle: saline 102 % of control | dose: 400.0 mg/kg/injection, schedule: Q04DX003 (ip), vehicle: saline 112 % of control

Cc1ccc(Nc2nc(N)nc(N)c2N)cc1Cl
inactive: dose: 100.0 mg/kg/injection, schedule: Q01DX Z (ip), vehicle: saline 104 % of control

CCN(C=O)c1ccc(NC=O)cc1
inactive: dose: 50.0 mg/kg/injection, schedule: Q01DX001 (ip), vehicle: saline with Tween-80 104 % of control | dose: 100.0 mg/kg/injection, schedule: Q01DX001 (ip), vehicle: saline with Tween-80 94 % of control and 100 % of control | dose: 100.0 mg/kg/injection, schedule: Q04DX002 (ip), vehicle: saline with Tween-80 103 % of control | dose: 100.0 mg/kg/injection, schedule: Q04DX003 (ip), vehicle: saline with Tween-80 97 % of control | dose: 200.0 mg/kg/injection, schedule: Q01DX001 (ip), vehicle: saline with Tween-80 94 % of control and 91 % of control | dose: 200.0 mg/kg/injection, schedule: Q04DX002 (ip), vehicle: saline with Tween-80 97 % of control | dose: 200.0 mg/kg/injection, schedule: Q04DX003 (ip), vehicle: saline with Tween-80 95 % of control and 91 % of control | dose: 400.0 mg/kg/injection, schedule: Q01DX001 (ip), vehicle: saline with Tween-80 94 % of control | dose: 400.0 mg/kg/injection, schedule: Q04DX002 (ip), vehicle: saline with Tween-80 101 % of control | dose: 400.0 mg/kg/injection, schedule: Q04DX003 (ip), vehicle: saline with Tween-80 103 % of control and 108 % of control

CCCCCCCCCCCCCCCCCC(=O)N/N=C/c1ccc(OCC)c(OC)c1
inactive: dose: 100.0 mg/kg/injection, schedule: Q01DX009 (ip), vehicle: Klucel (hydroxypropylcellulose) (HPC) 86 % of control | dose: 200.0 mg/kg/injection, schedule: Q01DX009 (ip), vehicle: Klucel (hydroxypropylcellulose) (HPC) 91 % of control | dose: 400.0 mg/kg/injection, schedule: Q01DX009 (ip), vehicle: Klucel (hydroxypropylcellulose) (HPC) 88 % of control

CC(=N/N=C(N)N)/C(C)=N/N=C(N)N
inactive: dose: 15.0 mg/kg/injection, schedule: Q01DX Z (ip), vehicle: saline 98 % of control | dose: 30.0 mg/kg/injection, schedule: Q01DX Z (ip), vehicle: saline 97 % of control | dose: 60.0 mg/kg/injection, schedule: Q01DX005 (oral), vehicle: saline 96 % of control | dose: 60.0 mg/kg/injection, schedule: Q01DX Z (ip), vehicle: saline 108 % of control | dose: 120.0 mg/kg/injection, schedule: Q01DX Z (ip), vehicle: saline 98 % of control
